Measurements as given in patent US20230092232A1, “COMPOUNDS THAT MODULATE ANTI-TUMOR IMMUNITY AND METHODS OF DOING THE SAME” (University of Florida Research Foundation, Incorporated, priority 2020, published 2023).
“Also recorded” adds a separate entry of the source.

Legend:
[1] = tested on: peripheral blood mononuclear cells from hypersensitive HLA-B*57.01+ patients; conditions: cultured with abacavir in vitro; cited from earlier work
[2] = cited from earlier work
[3] = target: HLA-B*57:01 (Homo sapiens, UniProt P01889, D201E/D98Y/E176V/E187L/E204Q/E69M/E70A/G107R/I90N/K202T/L105A/L119I/N104I/N87E/Q89R/Q94S/R106L/R155S/R180L/R86G/S101N/S121V/S35A/S48A/T118I/V36M/Y140S/Y91M); conditions: cited from earlier work
[4] = tested on: HLA alleles; conditions: cited from earlier work
[5] = tested on: IMEA cells; assay: In vitro killing of IMEA HCC cells, with or without BALB/c splenocytes; format: cell-based, mouse; design: IMEA cell killing: unit of the concentration uncertain; conditions: for enhanced killing of IMEA HCC: in vitro screening with T cells
Protocol: Prior to validation in human systems, a mouse system targeting hepatocellular carcinoma (HCC), the most common form of liver cancer, was used. IMEA is a murine HCC line of the H2^d haplotype, expressing the H2-D^d, H2-K^d, and H2-L^d allelic variants.
(§1) In a first set of experiments, drugs (e.g., small molecules) that bind IMEA MHC were selected from a database compiled using the in silico modeling and scoring methodology disclosed herein, and were tested for T cell stimulation and HCC killing in vitro. The crystal structure of H2-D^d was used as the basis for in silico selection of FDA-approved drugs predicted to bind the antigen binding cleft. DOCK6, a structure-based design program for early drug discovery (available for download at http://dock.compbio.ucsf.edu/) was used to screen 1,207 FDA approved small molecule drugs by parallel processing at the University of Florida High Performance Computing Center. An initial 1,207 FDA approved compounds were selected based upon their predicted ability to bind the HLA-A2 supertype, and thus their predicted efficacy across a wide swath of individuals. The top 40 scoring compounds were obtained from the National Cancer Institute Developmental Therapeutics Program.
IMEA cells were seeded in 24-well plates. At 30% confluence of IMEA cells, 0.5×10^6 of BALB/c mouse splenocytes were added to half of the wells. The compounds under evaluation were incubated with IMEA cells in concentrations […] and 1 mM, and supernatant was subsequently collected.

[6] = tested on: PBMCs from an HLA-A2 expressing individual (UF 86); assay: Ex vivo T cell stimulation assay, flow cytometry, HLA-A2 expressing PBMCs; format: cell-based, human; conditions: for autologous mixed lymphocyte reaction: HLA-A2 expressing cells, FIG. 5
Protocol: Third, top scoring compounds were tested for their ability to modulate proliferation of peripheral blood mononuclear cells (PBMCs) from healthy individuals using ex vivo T cell stimulation assays. Here, the drugs predicted to bind HLA-A2 (FIGS. 4A-4I) were tested using PBMCs from HLA-typed normal individuals. In assays, drugs were incubated with PBMCs (for up to 14 days), and functional characteristics of the responding T cell population were assayed utilizing flow cytometry (e.g., using antibodies specific for CD3 and CD8). PBMCs were stimulated with drugs at […] per ml with interleukin-2 (IL-2) supplemented on day 2. […] PBMCs from an HLA-A2 expressing individual (“UF 86” is homozygous for HLA-A*02:01) were incubated with a panel of drugs predicted to bind HLA-A2 by molecular docking. PBMCs from an individual lacking HLA-A2 (“UF 85”) served as a control for HLA allele specificity. Cells were stained with antibodies specific for CD3, CD8 (cytotoxic T lymphocyte markers), CD69, and CD107a (LAMP-1) (activation markers) to identify those drugs from the top scoring grouping that modify cytotoxic T lymphocyte activity.

[7] = tested on: H2-D^d T cells; assay: In vitro T cell stimulation in the mouse HCC system; format: cell-based
Protocol: as §1
IMEA cells were seeded in 24-well plates. At 30% confluence of IMEA cells, 0.5×10^6 of BALB/c mouse splenocytes were added to half of the wells. The compounds under evaluation were incubated with IMEA cells in concentrations of 10 mM and 1 mM, and supernatant was subsequently collected.

In the case of `Nc1nc(NC2CC2)c2ncn([C@H]3C=C[C@@H](CO)C3)c2n1` [Abacavir], the “immune response of PBMCs (interferon-γ, tumor necrosis factor-α, other inflammatory cytokines)” value [1] is listed as “detectable immune response”, the “risk of a hypersensitivity reaction” value ([2]; HLA-B*57:01 patient) is listed as ~50% and the “overall incidence rate of hypersensitivity” value ([2]; no genetic prescreening, HLA-B*57:01+ and HLA-B*57:01- individuals) is listed as ~6%. The “CD8+ T cell activity” value ([3]; by binding HLA-B*57:01) was “enhances” and the “polyclonal T cell responses” value ([3]; drug naïve individuals that carry the HLA-B*57:01 allele) was “stimulates”.

For `CC1(C)S[C@@H]2[C@H](NC(=O)[C@H](N)c3ccccc3)C(=O)N2[C@H]1C(=O)O` [Aminopenicillins], the “HLA allele association(s) with adverse drug reaction” value (from here on “HLA allele association(s)”) [4] is given as “A2, DRw52”.

For `CC(=O)Oc1ccccc1C(=O)O` [Aspirin], the “HLA allele association(s)” value [4] is listed as “DPB1*03:01; also recorded: DRB1*13:02-DQB1*06:09”.

In the case of `CN1CCN(C2=Nc3cc(Cl)ccc3Nc3ccccc32)CC1` [Clozapine], the “HLA allele association(s)” value [4] is given as “B38, DR4, DR2”.

In the case of `NNc1nncc2ccccc12` [Hydralazine], the “HLA allele association(s)” value [4] is given as “DR4”.

In the case of `Cc1cc(NS(=O)(=O)c2ccc(N)cc2)no1` [Sulfamethoxazole], the “HLA allele association(s)” value [4] is given as “A30; B13; Cw6”.

For `CCOC(=O)CN[C@@H](C(=O)N1CC[C@H]1C(=O)NCc1ccc(/C(N)=N\O)cc1)C1CCCCC1` [Ximelagatran], the “HLA allele association(s)” value [4] is listed as “DRB1*07, DQA1*02; also recorded: DQB1*07:01”.

With `Cl.Nc1ccn([C@@H]2O[C@H](CO)[C@@H](O)[C@@H]2O)c(=O)n1` [compound 63878] the IMEA cell killing ([5]; 1 (unit uncertain)) was “killed” and the IMEA cell killing ([5]; 10 (unit uncertain)) was “killed”.

For `Nc1ncn([C@@H]2O[C@H](CO)[C@@H](O)[C@H]2O)c(=O)n1` [compound 102816], the IMEA cell killing ([5]; 10 (unit uncertain)) was “killed”.

For `NC(=O)c1ncn([C@@H]2O[C@H](CO)[C@@H](O)[C@H]2O)n1` [compound 163039], the IMEA cell killing ([5]; 10 (unit uncertain)) was “killed”.

For `N[C@@H](Cc1ccc(N(CCCl)CCCl)cc1)C(=O)O` [compound 241286], the IMEA cell killing ([5]; 10 (unit uncertain)) was “killed”.

In the case of `CC(C)(S)[C@@H](N)C(=O)O` [d-penicillamine], the “HLA allele association(s)” value [4] is given as “B8, DR3, DR1”.

With `O=C(O)CNC(=O)C(Cl)Cl` [drug 3] the “autologous mixed lymphocyte reaction” value [6] was “inhibit”.

For `O=C(O)c1ccc(I)cc1O` [drug 10], the “autologous mixed lymphocyte reaction” value [6] was “inhibit”.

With `O=CC(Br)=C(Br)C(=O)O` [drug 11, 2,3-dibromo-4-oxobut-2-enoic acid] the “number of activated CD8+ cells” value ([6]; day 4, FIG. 5) was “enhances”.

For `N[C@@H](Cc1ccc(N(CCCl)CCCl)cc1)C(=O)O` [melphalan], the “stimulation of H2-D^d T cells” value [7] was “stimulated” and the “enhanced killing of IMEA HCC” value [5] was “enhanced killing”.

For `NC(=O)c1ncn([C@@H]2O[C@H](CO)[C@@H](O)[C@H]2O)n1` [ribavirin], the “stimulation of H2-D^d T cells” value [7] was “stimulated” and the “enhanced killing of IMEA HCC” value [5] was “enhanced killing”.

For `Nc1ncn([C@@H]2O[C@H](CO)[C@@H](O)[C@H]2O)c(=O)n1` [vidaza], the “stimulation of H2-D^d T cells” value [7] was “stimulated” and the “enhanced killing of IMEA HCC” value [5] was “enhanced killing”.

In the case of Asparaginase, the “HLA allele association(s)” value [4] is given as “DRB1*07:01”.
